US20070142392A1, “Uses of rifamycins” (ActivBiotics, Inc., priority 2005, published 2007)
≈ marks a conversion by molar mass, not a printed value.

Key:
Format in all cases: cell-based
E. coli = assay: MIC values, E. coli (Tables 1-4)
H. flu = test system: H. flu
S. aureus = assay: MIC values, S. aureus (Tables 1-4)
E. faecalis = assay: MIC values, E. faecalis (Tables 1-4)
S. pneumo. = assay: MIC values, S. pneumo. (Tables 1-4)

Row | SMILES | MIC E. coli (E. coli) [µg/mL] | MIC H. flu (H. flu) [µg/mL] | MIC S. aureus (S. aureus) [µg/mL] | MIC E. faecalis (E. faecalis) [µg/mL] | MIC S. pneumo. (S. pneumo.) [ng/mL]
1 | CCCC(=O)NC1CCN(c2cc(O)c3nc4c5c6c7c(C)c(O)c5c(=O)c(c-4oc3c2)NC(=O)/C(C)=C\C=C\[C@H](C)[C@H](O)[C@@H](C)[C@@H](O)[C@@H](C)[C@H](O)[C@H](C)[C@@H](OC)/C=C/O[C@@](C)(O7)C6=O)CC1 [Compound 36] | >8 | 0.25 (≈ 270 nM) | 0.004 (≈ 4.31 nM) | 2 (≈ 2160 nM) | 0.03 (≈ 0.0324 nM)
2 | CCNC(=O)NC1CCN(c2cc(O)c3nc4c5c6c7c(C)c(O)c5c(=O)c(c-4oc3c2)NC(=O)/C(C)=C\C=C\[C@H](C)[C@H](O)[C@@H](C)[C@@H](O)[C@@H](C)[C@H](O)[C@H](C)[C@@H](OC)/C=C/O[C@@](C)(O7)C6=O)CC1 [Compound 37] | >8 | 0.25 (≈ 269 nM) | 0.03 (≈ 32.3 nM) | 2 (≈ 2160 nM) | 4 (≈ 4.31 nM)
3 | CO[C@H]1/C=C/O[C@@]2(C)Oc3c(C)c(O)c4c(=O)c(c5oc6cc(N7CCC(NS(=O)(=O)C(F)(F)F)CC7)cc(O)c6nc-5c4c3C2=O)NC(=O)/C(C)=C\C=C\[C@H](C)[C@H](O)[C@@H](C)[C@@H](O)[C@@H](C)[C@H](O)[C@@H]1C [Compound 38] | >8 | 0.25 (≈ 253 nM) | 0.12 (≈ 121 nM) | 8 (≈ 8090 nM) | 15 (≈ 15.2 nM)
4 | CO[C@H]1/C=C/O[C@@]2(C)Oc3c(C)c(O)c4c(=O)c(c5oc6cc(N7CCC(N)CC7)cc(O)c6nc-5c4c3C2=O)NC(=O)/C(C)=C\C=C\[C@H](C)[C@H](O)[C@@H](C)[C@@H](O)[C@@H](C)[C@H](O)[C@@H]1C [Compound 39] | >8 | 0.25 (≈ 292 nM) | 0.03 (≈ 35 nM) | 2 (≈ 2330 nM) | 1 (≈ 1.17 nM)
5 | CCOC(=O)N1CCCC2CN(c3cc(O)c4nc5c6c7c8c(C)c(O)c6c(=O)c(c-5oc4c3)NC(=O)C(C)=CC=CC(C)C(O)C(C)C(O)C(C)C(OC(C)=O)C(C)C(OC)C=COC(C)(O8)C7=O)CC21 (stereo not shown) [Compound 40] | >8 | 0.5 (≈ 501 nM) | 0.06 (≈ 60.2 nM) | 1 (≈ 1000 nM) | 8 (≈ 8.02 nM)
6 | COCCOC(=O)NC1CCN(c2cc(O)c3nc4c5c6c7c(C)c(O)c5c(=O)c(c-4oc3c2)NC(=O)/C(C)=C\C=C\[C@H](C)[C@H](O)[C@@H](C)[C@@H](O)[C@@H](C)[C@H](OC(C)=O)[C@H](C)[C@@H](OC)/C=C/O[C@@](C)(O7)C6=O)CC1 [Compound 41] | >8 | 2 (≈ 2000 nM) | 0.25 (≈ 250 nM) | >8 | 0.5 (≈ 0.499 nM)
7 | CCOC(=O)N1CCCC2CN(c3cc(O)c4nc5c6c7c8c(C)c(O)c6c(=O)c(c-5oc4c3)NC(=O)C(C)=CC=CC(C)C(O)C(C)C(O)C(C)C(O)C(C)C(OC)C=COC(C)(O8)C7=O)CC21 (stereo not shown) [Compound 42] | 8 (≈ 8380 nM) | 0.5 (≈ 524 nM) | 0.008 (≈ 8.38 nM) | 2 (≈ 2090 nM) | 0.12 (≈ 0.126 nM)
8 | CO[C@H]1/C=C/O[C@@]2(C)Oc3c(C)c(O)c4c(=O)c(c5oc6cc(N7CCC(NC(C)=O)CC7)cc(O)c6nc-5c4c3C2=O)NC(=O)/C(C)=C\C=C\[C@H](C)[C@H](O)[C@@H](C)[C@@H](O)[C@@H](C)[C@H](O)[C@@H]1C [Compound 43] | >8 | 0.5 (≈ 556 nM) | 0.03 (≈ 33.4 nM) | 2 (≈ 2220 nM) | 2 (≈ 2.22 nM)
9 | CO[C@H]1/C=C/O[C@@]2(C)Oc3c(C)c(O)c4c(=O)c(c5oc6cc(N7CCC(NC(C)=O)CC7)cc(O)c6nc-5c4c3C2=O)NC(=O)/C(C)=C\C=C\[C@H](C)[C@H](O)[C@@H](C)[C@@H](O)[C@@H](C)[C@H](OC(C)=O)[C@@H]1C [Compound 44] | >8 | 0.25 (≈ 266 nM) | 0.06 (≈ 63.8 nM) | 2 (≈ 2130 nM) | 8 (≈ 8.5 nM)
10 | CO[C@H]1/C=C/O[C@@]2(C)Oc3c(C)c(O)c4c(=O)c(c5oc6cc(N7CCC(NC(=O)SC)CC7)cc(O)c6nc-5c4c3C2=O)NC(=O)/C(C)=C\C=C\[C@H](C)[C@H](O)[C@@H](C)[C@@H](O)[C@@H](C)[C@H](OC(C)=O)[C@@H]1C [Compound 45] | 8 (≈ 8220 nM) | 0.5 (≈ 514 nM) | 0.015 (≈ 15.4 nM) | 4 (≈ 4110 nM) | 1 (≈ 1.03 nM)
11 | COC1C=COC2(C)Oc3c(C)c(O)c4c(=O)c(c5oc6cc(N7CC8CCCN(C(C)=O)C8C7)cc(O)c6nc-5c4c3C2=O)NC(=O)C(C)=CC=CC(C)C(O)C(C)C(O)C(C)C(O)C1C (stereo not shown) [Compound 46] | >8 | 0.5 (≈ 541 nM) | 0.004 (≈ 4.32 nM) | 2 (≈ 2160 nM) | 0.06 (≈ 0.0649 nM)
